For test [1], the target named is T1, serotonin transporter (SERT) (Homo sapiens, UniProt P31645).
T1 construct: expressed in transfected cells; host or cells: CHO cells
Description: Radioligand binding assay, serotonin transporter (SERT). The note with it: binding assay, test compound 1×10^−6 M. The procedure, abridged: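 Values are derived from competition curves fitted by the Hill equation to give IC50, then converted to Ki by Cheng-Prusoff with radioligand Kd from Scatchard analysis. Specific binding equals total minus non-specific (excess cold ligand), counted by scintillation, and is also expressed as percent inhibition of control.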

The target of test [2] is dopaminergic receptors D2 (Homo sapiens, UniProt P14416). As to the kind of experiment: Radioligand binding assay, dopaminergic D2 receptors. The note with it: for inhibition at 1 µM: binding assay, test compound 1×10^−6 M; for Ki: read-out: Inhibition constants Ki for D2 receptors, D2. The procedure, abridged: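 Displacement of radioligand from human dopamine D2, D3 or D4.4 receptors, counted by scintillation; specific binding is total minus binding under excess unlabelled ligand. IC50 values come from Hill curve fits of percent inhibition, then converted to Ki by Cheng-Prusoff using Scatchard-derived KD.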

For another test, the target named is T2, receptors D4.4 (Homo sapiens, UniProt P21917).
T2 sequence (P21917 1-419): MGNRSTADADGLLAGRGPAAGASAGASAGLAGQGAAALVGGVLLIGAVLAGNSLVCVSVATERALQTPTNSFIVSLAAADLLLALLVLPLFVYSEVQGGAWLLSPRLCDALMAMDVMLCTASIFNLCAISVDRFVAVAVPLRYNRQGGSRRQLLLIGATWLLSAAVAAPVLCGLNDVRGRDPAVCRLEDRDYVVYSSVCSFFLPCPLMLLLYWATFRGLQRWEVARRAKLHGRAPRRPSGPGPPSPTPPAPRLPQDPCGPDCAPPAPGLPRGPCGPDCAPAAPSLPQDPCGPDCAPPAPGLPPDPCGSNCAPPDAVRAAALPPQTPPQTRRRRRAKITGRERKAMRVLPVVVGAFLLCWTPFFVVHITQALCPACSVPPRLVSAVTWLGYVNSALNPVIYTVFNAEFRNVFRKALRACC
Description: Radioligand binding assay, dopaminergic D4 (D4.4) receptors. The note with it: test compound 1×10^−6 M. A digest of the protocol: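 Scintillation read-out. Specific = total − nonspecific (excess cold ligand). Data as % of control specific binding / % inhibition; IC50 by Hill fit; Ki = IC50/(1+L/KD), KD from Scatchard plot.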

The subject of test [3] is α1 adrenergic receptors (rat cerebral cortex). Description: Radioligand binding assay, adrenergic α1 receptors. The note with it: test compound 1×10^−6 M. A digest of the protocol:
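Values derive from radioligand displacement, with non-specific binding defined by excess cold ligand and detection by scintillation. Hill-fit IC50s were converted to Ki via Cheng-Prusoff using Scatchard-derived Kd; percent inhibition of control specific binding also reported.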

A further test addresses T3, M3 muscarinic receptors (Homo sapiens, UniProt P20309).
T3 construct: expressed in transfected cells; host or cells: CHO cells
As to the kind of experiment: Radioligand binding assay, muscarinic M3 receptors. The note with it: test compound 1×10^−6 M. The procedure, abridged: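 Radioligand competition binding, detected by scintillation counting; non-specific binding defined with excess unlabelled ligand. Results given as % inhibition of control specific binding; IC50 from Hill-equation fit of competition curves, Ki via Cheng-Prusoff with radioligand KD from Scatchard plot.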

The target of a further test is T4, 5-HT6 receptor (Homo sapiens, UniProt P50406).
T4 construct: purchased PerkinElmer
Description: Radioligand binding assay, serotoninergic 5-HT6 receptors. The note with it: for inhibition at 1 µM: binding assay result in %, Table 5a; for Ki: read-out: Inhibition constants Ki, 5-HT6. The procedure, abridged:
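Values are Ki from Cheng–Prusoff, taking IC50 from Hill nonlinear regression of competition curves and KD from a Scatchard plot. Specific binding was total minus binding with excess unlabelled ligand. Radioligand displacement was detected by scintillation counting, and data were also reported as percent of control specific binding.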

A further test deals with T5, 5-HT2C receptor (Homo sapiens, UniProt P28335).
T5 construct: expressed in transfected cells; host or cells: HEK-293 cells
T5 sequence (P28335 33-458): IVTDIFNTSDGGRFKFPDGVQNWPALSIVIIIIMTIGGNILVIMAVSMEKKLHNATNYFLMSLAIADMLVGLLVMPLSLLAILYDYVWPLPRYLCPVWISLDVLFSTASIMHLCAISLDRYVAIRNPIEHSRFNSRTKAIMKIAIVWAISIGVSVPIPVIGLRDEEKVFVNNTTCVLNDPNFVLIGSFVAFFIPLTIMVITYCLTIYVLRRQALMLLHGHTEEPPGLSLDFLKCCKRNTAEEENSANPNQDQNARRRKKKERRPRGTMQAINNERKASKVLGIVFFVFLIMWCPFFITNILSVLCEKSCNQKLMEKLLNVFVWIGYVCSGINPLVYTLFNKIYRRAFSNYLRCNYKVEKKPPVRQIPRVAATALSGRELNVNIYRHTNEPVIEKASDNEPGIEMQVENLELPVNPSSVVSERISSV
As to the kind of experiment: Radioligand binding assay, serotoninergic 5-HT2C receptors. The note with it: test compound 1×10^−6 M.

The structures appear in SMILES notation.

T3 sequence (P20309 whole entry): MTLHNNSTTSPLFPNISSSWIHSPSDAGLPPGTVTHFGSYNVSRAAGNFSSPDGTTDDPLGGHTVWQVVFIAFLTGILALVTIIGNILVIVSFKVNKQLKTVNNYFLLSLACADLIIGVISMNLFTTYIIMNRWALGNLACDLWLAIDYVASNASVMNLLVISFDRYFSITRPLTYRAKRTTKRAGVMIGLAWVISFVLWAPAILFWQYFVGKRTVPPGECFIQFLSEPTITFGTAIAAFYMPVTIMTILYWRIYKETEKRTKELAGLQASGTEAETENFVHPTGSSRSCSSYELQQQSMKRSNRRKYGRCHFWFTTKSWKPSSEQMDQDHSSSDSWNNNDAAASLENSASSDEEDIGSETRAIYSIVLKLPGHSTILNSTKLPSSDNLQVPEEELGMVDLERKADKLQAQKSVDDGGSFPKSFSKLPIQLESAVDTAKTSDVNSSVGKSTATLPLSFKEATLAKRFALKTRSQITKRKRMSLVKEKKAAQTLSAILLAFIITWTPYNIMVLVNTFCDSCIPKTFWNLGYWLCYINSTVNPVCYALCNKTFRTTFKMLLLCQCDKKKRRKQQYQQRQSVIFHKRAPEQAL
T1 sequence (P31645 whole entry): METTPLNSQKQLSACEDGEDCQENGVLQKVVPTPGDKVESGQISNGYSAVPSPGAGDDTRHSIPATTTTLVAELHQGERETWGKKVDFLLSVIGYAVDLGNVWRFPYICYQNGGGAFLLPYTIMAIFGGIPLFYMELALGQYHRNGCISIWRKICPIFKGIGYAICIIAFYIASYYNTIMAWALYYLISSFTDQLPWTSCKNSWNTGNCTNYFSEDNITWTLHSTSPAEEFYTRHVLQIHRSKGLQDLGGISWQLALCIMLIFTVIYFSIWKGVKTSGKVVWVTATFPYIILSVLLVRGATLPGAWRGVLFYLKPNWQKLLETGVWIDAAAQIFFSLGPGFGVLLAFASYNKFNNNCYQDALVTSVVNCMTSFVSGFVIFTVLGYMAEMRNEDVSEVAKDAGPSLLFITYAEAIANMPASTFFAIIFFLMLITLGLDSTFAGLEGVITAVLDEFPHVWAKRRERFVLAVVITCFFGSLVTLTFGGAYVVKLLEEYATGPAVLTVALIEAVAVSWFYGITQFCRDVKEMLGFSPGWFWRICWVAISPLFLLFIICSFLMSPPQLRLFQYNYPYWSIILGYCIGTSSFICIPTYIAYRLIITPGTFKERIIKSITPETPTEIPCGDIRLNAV
Chain of dopaminergic receptors D2 (P14416 whole entry): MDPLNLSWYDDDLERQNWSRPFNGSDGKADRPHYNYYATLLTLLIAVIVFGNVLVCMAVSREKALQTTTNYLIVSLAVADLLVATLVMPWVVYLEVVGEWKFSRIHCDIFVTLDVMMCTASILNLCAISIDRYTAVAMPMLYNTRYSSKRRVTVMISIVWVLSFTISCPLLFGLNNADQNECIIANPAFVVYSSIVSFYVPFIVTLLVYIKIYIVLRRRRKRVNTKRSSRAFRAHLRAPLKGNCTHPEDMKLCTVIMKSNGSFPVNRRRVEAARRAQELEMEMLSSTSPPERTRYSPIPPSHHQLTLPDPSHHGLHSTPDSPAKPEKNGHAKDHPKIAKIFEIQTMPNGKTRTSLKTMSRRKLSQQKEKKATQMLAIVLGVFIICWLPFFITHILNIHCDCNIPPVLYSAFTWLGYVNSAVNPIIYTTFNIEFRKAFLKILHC
T4 sequence (P50406 whole entry): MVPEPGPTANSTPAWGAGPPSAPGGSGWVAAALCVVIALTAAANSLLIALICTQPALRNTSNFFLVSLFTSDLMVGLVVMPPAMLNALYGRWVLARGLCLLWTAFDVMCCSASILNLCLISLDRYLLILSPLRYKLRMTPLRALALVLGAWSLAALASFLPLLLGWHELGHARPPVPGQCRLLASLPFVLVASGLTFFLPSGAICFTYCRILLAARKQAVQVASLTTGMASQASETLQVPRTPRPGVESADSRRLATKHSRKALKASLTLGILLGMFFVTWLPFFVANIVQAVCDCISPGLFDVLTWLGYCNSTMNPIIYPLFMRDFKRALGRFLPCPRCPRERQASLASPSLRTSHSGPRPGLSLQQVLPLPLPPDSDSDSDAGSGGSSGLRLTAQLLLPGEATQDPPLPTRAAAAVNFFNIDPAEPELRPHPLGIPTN

As to `O=S(=O)(NCC1CN(CCCc2noc3cc(F)ccc23)C1)c1ccc(-c2ccccc2)cc1` [Compound 135, N-[[1-[3-(6-Fluoro-1,2-benzoxazol-3-yl)propyl]azetidin-3-yl]methyl]-4-phenyl-benzenesulphonamide], the inhibition at 1 µM in test [1] was 68%; in test [2], 92%; on receptors D4.4, 60%; at M3 muscarinic receptors it was 19%; at 5-HT6 receptor, 92%; at 5-HT2C receptor it was 86%. Besides, the “α1 [%]” value in test [3] is listed as 88%.
As for `O=S(=O)(NC1CCN(CCCc2noc3cc(F)ccc23)C1)c1ccc2cc(Cl)ccc2c1` (centres unmarked) [Compound 23, 6-Chloro-N-[1-[3-(6-fluoro-1,2-benzoxazol-3-yl)propyl]pyrrolidin-3-yl]naphthalene-2-sulphonamide], the inhibition at 1 µM in test [1] is 53%; in test [2], 100%; on receptors D4.4, 55%; at M3 muscarinic receptors, 10%; on 5-HT6 receptor, 97%; on 5-HT2C receptor it was 67%. Besides, in test [3], the “α1 [%]” value was determined as 64%.
For `Cc1c(S(=O)(=O)N[C@@H]2CCN(CCCc3noc4cc(F)ccc34)C2)sc2ccc(F)cc12` [Compound 202, 5-Fluoro-N-[(3R)-1-[3-(6-fluoro-1,2-benzoxazol-3-yl)propyl]pyrrolidin-3-yl]-3-methyl-benzothiophene-2-sulphonamide], the inhibition at 1 µM in test [1] stood at 58%; in test [2], 101%; on receptors D4.4, 76%; on M3 muscarinic receptors, 9%; at 5-HT6 receptor, 100%; at 5-HT2C receptor, 88%. The figures for the Ki (in test [2]; on 5-HT6 receptor) were 1.2 nM and 7.1 nM, respectively. Also, the “α1 [%]” value in test [3] is 98%.
On to `O=S(=O)(NCC1CCN(CCCc2noc3cc(F)ccc23)C1)c1ccc2ccccc2c1` (centres unmarked) [Compound 240, N-[[1-[3-(6-Fluoro-1,2-benzoxazol-3-yl)propyl]pyrrolidin-3-yl]methyl]-naphthalene-2-sulphonamide], for which the inhibition at 1 µM in test [1] came out at 43%; in test [2] it was 95%; at receptors D4.4, 57%; at M3 muscarinic receptors it was 21%; at 5-HT6 receptor, 93%; at 5-HT2C receptor it was 81%. Moreover, the “α1 [%]” value in test [3] turned out to be 86%.
Turning to `O=S(=O)(N[C@@H]1CCN(CCCc2noc3cc(F)ccc23)C1)c1cc2ccccc2o1` [Compound 214, N-[(3R)-1-[3-(6-Fluoro-1,2-benzoxazol-3-yl)propyl]pyrrolidin-3-yl]benzo-furan-2-sulphonamide], the inhibition at 1 µM in test [1] is 15%; in test [2], 97%; at receptors D4.4, 61%; at M3 muscarinic receptors, 11%; on 5-HT6 receptor it was 97%; on 5-HT2C receptor it was 65%. Further, the Ki in test [2] was 2.8 nM; at 5-HT6 receptor it was 7.5 nM. The “α1 [%]” value in test [3] is 91%.
For `O=S(=O)(NC1CCN(CCCc2noc3cc(F)ccc23)C1)c1cc2ccccc2o1` (centres unmarked) [Compound 216, N-[1-[3-(6-Fluoro-1,2-benzoxazol-3-yl)propyl]pyrrolidin-3-yl]benzofuran-2-sulphonamide], the inhibition at 1 µM amounted to 53% in test [1]; 98% in test [2]; 87% on receptors D4.4; 28% at M3 muscarinic receptors; 97% at 5-HT6 receptor; 62% at 5-HT2C receptor. In addition, the “α1 [%]” value in test [3] is given as 84%.
On to `O=S(=O)(NC1CCN(CCOc2nsc3ccccc23)C1)c1ccc2ccccc2c1` (centres unmarked) [Compound 39, N-[1-[2-(1,2-Benzothiazol-3-yloxy)ethyl]pyrrolidin-3-yl]naphthalene-2-sulphonamide], for which the inhibition at 1 µM in test [1] came to 29%; in test [2] it was 86%; on receptors D4.4, 73%; on M3 muscarinic receptors, 19%; at 5-HT6 receptor, 92%; at 5-HT2C receptor, 74%. In test [3], the “α1 [%]” value is on record as 29%.

(Values after patent US20140135310A1, “SULPHONAMIDE DERIVATIVES OF ALICYCLIC AMINES FOR THE TREATMENT OF CENTRAL NERVOUS SYSTEM DISEASES” (Adamed Sp. z o.o., priority 2011, published 2014).)
